Experimental data published in publication PMC5630020 (Genes & Development, 2017).

Tests used:
[1] = target: T1, MglA–SspA complex (heterodimer) (Francisella tularensis, UniProt Q5NFG1+Q5NHJ6); assay: biochemical
[2] = target: T1, MglA–SspA complex (heterodimer)

T1 sequence (Q5NFG1 1-205): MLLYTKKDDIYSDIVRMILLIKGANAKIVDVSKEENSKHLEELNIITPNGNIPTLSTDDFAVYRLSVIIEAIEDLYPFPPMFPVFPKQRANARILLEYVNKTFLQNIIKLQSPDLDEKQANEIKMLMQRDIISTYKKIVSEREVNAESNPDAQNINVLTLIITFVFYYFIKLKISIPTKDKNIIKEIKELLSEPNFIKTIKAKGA
T1 sequence (Q5NHJ6 1-210): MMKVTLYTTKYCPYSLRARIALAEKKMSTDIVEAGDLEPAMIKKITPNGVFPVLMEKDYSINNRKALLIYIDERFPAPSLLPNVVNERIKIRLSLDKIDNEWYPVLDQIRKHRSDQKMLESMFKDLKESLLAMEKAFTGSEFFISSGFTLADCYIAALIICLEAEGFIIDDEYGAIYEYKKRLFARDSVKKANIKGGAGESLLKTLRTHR

In the case of `Nc1nc2c(ncn2[C@@H]2O[C@H](COP(=O)(O)OP(=O)(O)O)[C@@H](OP(=O)(O)OP(=O)(O)O)[C@H]2O)c(=O)[nH]1` [ppGpp], the Kd [1] is reported as ~12 µM.
For `Nc1nc2c(ncn2[C@@H]2O[C@H](COP(=O)(O)OP(=O)(O)OP(=O)(O)O)[C@@H](O)[C@H]2O)c(=O)[nH]1` [GTP], the “DRaCALA competition against 32P-ppGpp” value [2] was “GTP competed weakly, and ATP, CTP, and UTP showed no detectable competition”.
